Measurements from US8329688B2, “Trans-4-[[(5S)-5-[[[3,5-bis(trifluoromethyl)phenyl]methyl](2-methyl-2H-tetrazol-5-yl)amino]-2,3,4,5-tetrahydro-7,9-dimethyl-1H-1-benzazepin-1-yl]methyl]-cyclohexanecarboxylic acid” (Eli Lilly and Company, priority 2009, dated 2012).

Assay: IV and PO pharmacokinetics of CETP inhibitor compounds in male Sprague Dawley rats
Format: in vivo
Details: rat, 3 mg/kg PO, 1 mg/kg IV
Procedure: This following is to determine the pharmacokinetic parameters, including oral bioavailability, following a single 1 mg/kg intravenous bolus or a 3 mg/kg oral dose administration of the compound to male Sprague Dawley rats (n=4) in a crossover study design. The intravenous vehicle is 20% solutol microemulsion/80% deionized water. The oral vehicle is povidone USP 10%/SLS 0.5%/QS deionized water. In the intravenous arm, blood samples are collected at 0.08, 0.25, 0.5, 1, 2, 5, 8, 12, and 24 hours post-dose. In the oral arm, blood samples are collected at 0, 0.25, 0.5, 1, 2, 5, 8, 12, and 24 hours post-dose. Plasma is obtained by centrifugation, placed on ice, and frozen until samples are shipped on dry ice to Bioanalytical Systems, Inc. (BASi; West Lafayette, Ind.) for bioanalytical analysis. Concentrations of BCCA are determined by LC/MS/MS and pharmacokinetic parameters are calculated using a validated software program (Watson, Version 7.1). […]

SMILES: Cc1cc2c(c(C)c1C(F)(F)F)N(CC1CCC(CC(=O)O)CC1)CCC[C@@H]2N(Cc1cc(C(F)(F)F)cc(C(F)(F)F)c1)c1nnn(C)n1 (stereo partly drawn) [compound 15, (S)-(4-{5-[(3,5-Bis-trifluoromethyl-benzyl)-(2-methyl-2H-tetrazol-5-yl)-amino]-7,9-dimethyl-8-trifluoromethyl-2,3,4,5-tetrahydro-benzo[b]azepin-1-ylmethyl}-cyclohexyl)-acetic acid]
- F % (AUC Extrap.) ± sd: 8 ± 3%
